Consider 1 molecule from patent US12370167B2, “Blood-brain barrier permeability regulator and use thereof” (ZHEJIANG UNIVERSITY, priority 2019, dated 2025).

Test [1] deals with brain microvascular endothelial cells bEnd.3. The test is described as follows: Transmembrane resistance of physiological blood-brain barrier Transwell model, SC79 dose dependence. To be noted: SC79 0, 5, 10 μg/mL; 24 hours; n=5. The test is classed as cell-based. How it is done: A Transwell model of brain microvascular endothelial cells bEnd.3 was used to mimic the physiological blood-brain barrier. SC79 at different concentrations (0, 5 μg/mL, 10 μg/mL) was applied to the Transwell chamber. After 24 hours, the cell transmembrane resistance was detected by a cell resistance meter (n=5).
(§1) Brain microvascular endothelial cells bEnd.3 were used as model cells of a blood-brain barrier. 0.5 mL suspension of well-grown bEnd.3 cells was inoculated in the chamber of a 12-well Transwell plate with a pore size of 0.4 μm at a cell density of 1×10^5/well. 1.5 mL of fresh culture medium was supplemented in the outer chamber. The culture medium was refreshed every other day. Incubation was continued for 15 days at 37° C. and 5% CO2. When the cell transmembrane resistance value was greater than 150 ohm·cm^2 (Ω·cm^2), it may be regarded that a model of physiological blood-brain barrier was obtained.
A protein kinase B activator SC79 at different concentrations (0, 5 μg/mL, 10 μg/mL) was added into the Transwell chamber in the model of physiological blood-brain barrier. After 24 hours of the drug action, the Transwell chamber with bEnd.3 cells grown was transferred to another 12-well plate, and washed with PBS for 3 times. […] After the cells were equilibrated at 37° C. for 15 minutes, the cell transmembrane resistance was detected by a cell resistance meter.

The test system of the next test is neurons. The settings on record: mouse model of permanent local cerebral ischemia; cited from earlier work.
For test [2], the system named is tight junction proteins Claudin-5/Occludin in bEnd.3 cells. The test is described as follows: Claudin-5/Occludin immunofluorescence in physiological blood-brain barrier Transwell model after SC79. In kind it is cell-based. To be noted: SC79 0, 5, 10 μg/mL, 24 hours. How it is done:
FIG. 8: In vitro dose-dependent down-regulation of expression of tight junction proteins Claudin-5/Occludin by SC79. A Transwell model of brain microvascular endothelial cells bEnd.3 was used to mimic the physiological blood-brain barrier. SC79 at different concentrations (0, 5 μg/mL, 10 μg/mL) was applied to the Transwell chamber. After 24 hours, the bEnd.3 cells on the membrane of the Transwell chamber were immunofluorescence stained.
as §1
A protein kinase B activator SC79 at different concentrations (0, 5 μg/mL, 10 μg/mL) was added into the Transwell chamber in the model of physiological blood-brain barrier. […]

The test system of test [3] is blood-brain barrier permeability. The test can be described thus: Evans blue permeation into the brain after SC79. In kind it is in vivo, BABL/c nude mice. How it is done:
FIG. 10: In vivo regulation of increase in the blood-brain barrier permeability and increase in the amount of Evans blue permeated into the brain by SC79. SC79 was injected into tail veins of tumor-bearing animals at an administration dose of 5 mg/kg and 10 mg/kg, respectively. After 24 hours, an Evans blue solution was injected into tail veins at an administration dose of 5 mg/kg. After 4 hours, the intact brain of the nude mice was taken by cardiac perfusion.
FIG. 11: In vivo time-dependent regulation of increase in the blood-brain barrier permeability by SC79. SC79 was injected into tail veins of tumor-bearing animals at an administration dose of 5 mg/kg and 10 mg/kg, respectively. After 0 hour, 0.5 hour, and 24 hours, an Evans blue solution was injected into tail veins at an administration dose of 5 mg/kg. After 4 hours, the intact brain of the nude mice was taken by cardiac perfusion.
Male BABL/c nude mice (20+2 g) were used as the model animals. SC79 diluted with 0.2% injection grade Tween 80 solution was injected into tail veins at an administration dose of 5 mg/kg, 10 mg/kg. After 24 hours, an Evans blue solution was injected into tail veins at an administration dose of 5 mg/kg. After 4 hours, the intact brain of the nude mice was taken by cardiac perfusion. The distribution intensity of Evans blue in the brain tissue was qualitatively observed with a small animal live imaging instrument.
Male BABL/c nude mice (20±2 g) were used as the model animals. SC79 diluted with 0.2% injection grade Tween 80 solution was injected into tail veins at an administration dose of 5 mg/kg, 10 mg/kg. After 0.5 hour, and after 24 hours, an Evans blue solution was injected into tail veins at an administration dose of 5 mg/kg. After 4 hours, the intact brain of the nude mice was taken by cardiac perfusion. The distribution intensity of Evans blue in the brain tissue was qualitatively observed with a small animal live imaging instrument.

Test [4] has as its system bEnd.3 cells; bEnd.3 co-incubated with U87 MG. The test is described as follows: Real-time transmembrane resistance of physiological and pathological blood-brain barrier models after SC79. To be noted: SC79 5 μg/mL. In kind it is cell-based. How it is done: FIG. 9: In vitro time-dependent regulation of transmembrane resistance of the blood-brain barrier by SC79. A Transwell model of brain microvascular endothelial cells bEnd.3 was used to mimic the physiological blood-brain barrier. A Transwell model of co-incubated brain microvascular endothelial cells bEnd.3 and glioma cell U87 MG was used to mimic the pathological blood-brain barrier. SC79 (5 μg/mL) was applied to the Transwell chamber. The cell transmembrane resistance was real-time monitored by a cell resistance meter (n=5).
Brain microvascular endothelial cells bEnd.3 were used as model cells of a blood-brain barrier. 0.5 mL suspension of well-grown bEnd.3 cells was inoculated in the chamber of a 12-well Transwell plate with a pore size of 0.4 μm at a cell density of 1×10^5/well. 1.5 mL of fresh culture medium was supplemented in the outer chamber. The culture medium was refreshed every other day. Incubation was continued for 15 days at 37° C. and 5% CO2. […]
The physiological blood-brain barrier and the pathological blood-brain barrier, as respectively constructed according to the procedures described in the above sections of 1 and 2 of Example 2, were used as a model, respectively. […] The cell transmembrane resistance was real-time monitored.

Turning to `CCOC(=O)C1=C(N)Oc2ccc(Cl)cc2C1C(C#N)C(=O)OCC` (centres unmarked) [SC79], the cell transmembrane resistance entry in test [1] is reported as “dose-dependent regulation of transmembrane resistance”. Further, the survival of neurons result in the test with neurons is “increases the survival of neurons”. Besides, the “expression of tight junction proteins Claudin-5/Occludin” value in test [2] is recorded as “promotes down-regulation of expression of tight junction proteins”. The “amount of Evans blue permeated into the brain” value was “increased” in test [3] (SC79 5 mg/kg, 10 mg/kg tail vein, Evans blue after 24 hours, vs tumor-bearing control group); “increased” in test [3] (SC79 tail vein, Evans blue 0.5 hour after SC79); “the highest” in test [3] (SC79 tail vein, Evans blue 24 hours after SC79). In test [4] (after 24 hours of the drug action), the “effect in increasing the blood-brain barrier permeability” value is “most significant effect”. In test [4] (physiological and pathological models, real-time), the “cell transmembrane resistance over time” value is “decreased in a time-dependent manner”.
